This note sets out measurements from patent US8440794B2, “Peptide sequences, their branched form and use thereof for antimicrobial applications” (Universita' Degli Studi di Siena, priority 2008, dated 2013).

In general, MIC refers to the least concentration at which growth counts as inhibited. Lower therefore signals a more susceptible organism. Broadly, the EC50 is the midpoint of the concentration-response curve.

The subject of assay [1] is P. aeruginosa AV65. The assay is classed as cell-based, Pseudomonas aeruginosa. The settings on record: AV65, 24 h.
Assay [2] concerns P. aeruginosa PAO-1. The assay is classed as cell-based, Pseudomonas aeruginosa. Particulars: PAO-1, 24 h.
The subject of assay [3] is P. aeruginosa SC-BGr12-02. The assay is classed as cell-based, Pseudomonas aeruginosa. The settings on record: SC-BGr12-02, 24 h.
Assay [4] relates to P. aeruginosa SC-DMr05-04. The assay is classed as cell-based, Pseudomonas aeruginosa. Particulars: SC-DMr05-04, 24 h.
Assay [5] deals with P. aeruginosa SC-GMm03-05. The assay is classed as cell-based, Pseudomonas aeruginosa. Particulars: SC-GMm03-05, 24 h.
Assay [6] concerns P. aeruginosa SC-MDm03-02. The assay is classed as cell-based, Pseudomonas aeruginosa. Particulars: SC-MDm03-02, 24 h.
The test system of assay [7] is P. aeruginosa SC-MDr03-06. The assay is classed as cell-based, Pseudomonas aeruginosa. The settings on record: SC-MDr03-06, 24 h.
In assay [8] the test system is P. aeruginosa VR-143/97. The assay is classed as cell-based, Pseudomonas aeruginosa. Particulars: VR-143/97, 24 h.
Assay [9] deals with Acinetobacter baumannii RUH 134. The assay is classed as cell-based. Particulars: RUH 134, 24 h. As for the experimental part: (§1) M33, […], M35 and M36 MICs were determined against strains of several bacterial species, including Gram-negative pathogens and also Staphylococcus aureus (Table 1). MICs in the micromolar range were observed against several Gram-negatives including Pseudomonas aeruginosa, Acinetobacter baumannii and most Enterobacteriaceae, with the exception of Proteus mirabilis, Serratia marcescens and Burkholderia cepacia. Activity of peptides was retained against MDR strains with various resistance mechanisms (such as extended-spectrum beta-lactamases and carbapenemases), including MDR P. aeruginosa strains from CF patients. Antimicrobial profile of M33, […] and potency were overall similar to those of polymyxin B, although M33, M34, M35 and M36 also appeared to have some activity against S. aureus (Table 1).

The subject of assay [10] is Burkholderia cepacia ORB-99. The assay is classed as cell-based. The settings on record: 24 h. On the procedure: as §1
For assay [11], the system named is Enterobacer aerogenes W03BG0067. The assay is classed as cell-based. Particulars: 24 h. On the procedure:
as §1

Assay [12] deals with Enterobacter cloacae W03AN0041. The assay is classed as cell-based. Particulars: W03AN0041, 24 h. As for the experimental part: as §1
Assay [13] concerns Escherichia coli ATCC 25922. The assay is classed as cell-based. The settings on record: ATCC 25922, 24 h. As for the experimental part:
as §1

Assay [14] concerns Klebsiella pneumoniae ATCC 13833. The assay is classed as cell-based. The settings on record: ATCC 13833, 24 h. As for the experimental part: as §1
The test system of assay [15] is Proteus mirabilis W03VA1017. The assay is classed as cell-based. Particulars: W03VA1017, 24 h. As for the experimental part: as §1
In assay [16] the test system is Pseudomonas aeruginosa ATCC 27853. The assay is classed as cell-based. The settings on record: ATCC 27853, 24 h. As for the experimental part: as §1
For assay [17], the system named is Serratia marcescens W03BG0003. The assay is classed as cell-based. Particulars: W03BG0003, 24 h. On the procedure:
as §1

Assay [18] has as its system Staphylococcus aureus ATCC 29213. The assay is classed as cell-based. The settings on record: ATCC 29213, 24 h. As for the experimental part: as §1
Assay [19] deals with E. coli TG1. Nature of the assay: Antibacterial activity against E. coli TG1 cells (CFU count after 75 min incubation, FIG. 1A). Particulars: 75 minutes at 37° C., CFU counted. The assay is classed as cell-based. From the text: FIG. 1. A, Antibacterial activity against E. coli TG1 cells. Comparison of the following tetra-branched peptides: M6 batch 1 synthesis (triangles), M6 batch 2 synthesis (squares), M6 batch 3 synthesis (white circles), which contain a mixture of Gln and pyroGlu (in unknown percentages) as first amino-acid, […] (asterisks), where the first amino-acid is 100% pyroGlu, and M33 (black circles), in which the first Gln was deleted. […] SD derived by means of three different experiments. Many different syntheses of M33 (and also of M34, M35 and M36, here not shown) gave perfectly overlapping results without any wavering outcome. B, Mass spectrometry analysis of tetra-branched peptide M6 crude mixture. Calculated molecular mass of M6 was 5195 Da. Two main peaks are present, one at 5197 Da corresponding to unmodified M6 and one at 5179 Da that corresponds to the secondary product with one pyroGlu in first position in the place of one of the four Gln. C, Mass spectrometry analysis of tetrabranched peptide M33 after 24 hours of incubation in serum. The peptide appears as a single peak at the expected molecular mass (4683 Da).
A single colony of E. coli TG1 strain was cultured in 2×TY medium to 0.2 OD^600. […] The following day colonies (CFU/ml) grown on plates were counted.

Assay [20] deals with LPS from K. pneumoniae ATCC15380; TNF-α secretion by Raw 264.7 macrophages. Nature of the assay: Inhibition of LPS-induced TNF-α secretion by Raw 264.7 macrophages, LPS from K. pneumoniae. The assay is classed as cell-based. As for the experimental part:
FIG. 3. Inhibition of TNF-α release by neutralization of LPS. A, Raw 264.7 cells were incubated with LPS from P. aeruginosa 20 ng/ml and M33. Triangles indicate incubation with LPS and different concentrations of M33. Squares indicate incubation with M33 only. B, Raw 264.7 cells were incubated with LPS from K. pneumoniae 5 ng/ml and M33. Triangles indicate incubation of macrophages with LPS and different concentrations of M33. Squares indicate incubation of macrophages with M33 only. SD derived by means of three different experiments. 100% indicates the maximum amount of TNF-α produced by macrophages when incubated with LPS without M33. The other percentages indicate the amount of TNF-α produced by macrophages when incubated with LPS and M33, with respect to 100%. Basal levels of TNF-α were negligible. MIC of M33 is indicated by the arrow.
Then it was examined for inhibiting LPS-induced TNF-α, secretion by Raw 264.7 macrophages.

In brackets after ≈: the same amount, converted by molar mass. Where a SMILES comes first, the peptide text is derived from it. Bridges are numbered along the chain shown (N, C = ends). Roman numbers before positions name the chains, in order. [ ]: non-standard residue; d: D form. βAla = NCCC(=O)O Some results are limits rather than exact numbers.

As to `CC[C@H](C)[C@H](NC(=O)[C@H](CCCCN)NC(=O)[C@@H](N)CCCCN)C(=O)N[C@@H](CCCNC(=N)N)C(=O)N[C@H](C(=O)N[C@@H](CCCNC(=N)N)C(=O)N[C@@H](CC(C)C)C(=O)N[C@@H](CO)C(=O)N[C@@H](C)C(=O)NCCCC[C@H](NC(=O)[C@H](C)NC(=O)[C@H](CO)NC(=O)[C@H](CC(C)C)NC(=O)[C@H](CCCNC(=N)N)NC(=O)[C@@H](NC(=O)[C@H](CCCNC(=N)N)NC(=O)[C@@H](NC(=O)[C@H](CCCCN)NC(=O)[C@@H](N)CCCCN)[C@@H](C)CC)C(C)C)C(=O)NCCCC[C@H](NC(=O)[C@H](CCCCNC(=O)[C@H](C)NC(=O)[C@H](CO)NC(=O)[C@H](CC(C)C)NC(=O)[C@H](CCCNC(=N)N)NC(=O)[C@@H](NC(=O)[C@H](CCCNC(=N)N)NC(=O)[C@@H](NC(=O)[C@H](CCCCN)NC(=O)[C@@H](N)CCCCN)[C@@H](C)CC)C(C)C)NC(=O)[C@H](C)NC(=O)[C@H](CO)NC(=O)[C@H](CC(C)C)NC(=O)[C@H](CCCNC(=N)N)NC(=O)[C@@H](NC(=O)[C@H](CCCNC(=N)N)NC(=O)[C@@H](NC(=O)[C@H](CCCCN)NC(=O)[C@@H](N)CCCCN)[C@@H](C)CC)C(C)C)C(=O)NCCC(=O)O)C(C)C` [M33, KKIRVRLSA] (I: H-KKIRVRLSAKK[βAla]-OH / II: H-KKIRVRLSAK / III: H-KKIRVRLSA / IV: H-KKIRVRLSA; amide I:10-IV:C, I:11-II:C, II:10-III:C; N-terminus assumed), the minimum inhibitory concentration (MIC) in assay [1] came to 1.5 µM (≈ 7.02 µg/mL); in [2] it was 1.5 µM (≈ 7.02 µg/mL); in assay [3], 1.5 µM (≈ 7.02 µg/mL); in [4], 1.5 µM (≈ 7.02 µg/mL); in assay [5], 1.5 µM (≈ 7.02 µg/mL); in assay [6], 3 µM (≈ 14 µg/mL). The minimal inhibitory concentration (MIC) in [7] is 3 µM (≈ 14 µg/mL); in [8] it was 1.5 µM (≈ 7.02 µg/mL); in assay [9], 1.5 µM (≈ 7.02 µg/mL); in assay [10] it was above 24 µM; in assay [11] it was 1.5 µM (≈ 7.02 µg/mL); in [12], 1.5 µM (≈ 7.02 µg/mL). The minimal inhibitory concentration (MIC) in [13] is 1.5 µM (≈ 7.02 µg/mL); in [14], 1.5 µM (≈ 7.02 µg/mL); in assay [15], above 24 µM; in [16], 1.5 µM (≈ 7.02 µg/mL); in assay [17], above 24 µM; in [18] it was 6 µM (≈ 28.1 µg/mL). The “Antibacterial activity against E. coli TG1 cells (comparison of tetra-branched peptides, FIG. 1A)” value in assay [19] is given as “improved peptide activity”. Besides, the EC50 in [20] (Raw 264.7 macrophages, LPS from K. pneumoniae ATCC15380, 5 ng/ml, read-out: EC50, block of TNF-α secretion) was determined as 260 nM. For the same compound, in assay [20] (at a concentration corresponding to MIC (1.5-3 μM), LPS from K. pneumoniae), the “Decrease of TNF-α production” value is “more than 80%”.
